Data: PubChem BioAssay (NCI)
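Compound exposure: 48 hours, 5 concentrations, 96-well plates. GI50 marks 50% less growth. TGI marks complete inhibition of growth.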

Tests used:
Assay in all cases: NCI anticancer screen, dose series, 48 h
[1] = tested on: HOP-92 NSCLC
[2] = tested on: KM12 colon
[3] = tested on: NCI-H460 lung
[4] = tested on: NCI-H522 lung
[5] = tested on: SF-295 CNS
[6] = tested on: UACC-62 melanoma
[7] = tested on: CAKI-1 renal

O=S(=O)(c1ccccc1)N1CCC1c1ccccc1 (stereo unspecified)
TGI [1]: > 100 µM
TGI [2]: > 100 µM
TGI [3]: > 100 µM
TGI [4]: > 100 µM
TGI [5]: > 100 µM
TGI [6]: > 100 µM

CCOP(=O)(OCC)C(C(=O)OC)C(=O)C(=O)Nc1cccc([N+](=O)[O-])c1 (stereo unspecified)
TGI [7]: > 100 µM
TGI [2]: > 100 µM
TGI [3]: > 100 µM
TGI [4]: > 100 µM
TGI [5]: > 100 µM
TGI [6]: > 100 µM

CN(c1ccccc1)c1nc(=[N+](C)C)ss1
TGI [7]: > 100 µM
TGI [1]: > 100 µM
TGI [2]: > 100 µM
TGI [3]: > 100 µM
TGI [4]: > 100 µM
TGI [5]: > 100 µM
TGI [6]: > 100 µM

Cc1cc(C)c2c(c1)CSCc1cc(C)cc(C)c1-2
TGI [7]: 76.8 µM
TGI [2]: > 100 µM
TGI [3]: 56 µM
TGI [4]: 48 µM
TGI [5]: 68.3 µM
TGI [6]: > 100 µM

O=C1/C(=C/c2cc(O)c(O)c(O)c2)Oc2cc(O)cc(OC3OC(CO)C(O)C(O)C3O)c21 (stereo unspecified)
TGI [1]: 38.7 µM
TGI [2]: > 100 µM
TGI [3]: 34 µM
TGI [5]: 34.3 µM
TGI [6]: 38.8 µM

O=c1c(-c2cccc3ccccc23)c(-c2cccc3ccccc23)c1=O
TGI [7]: > 100 µM
TGI [1]: 39.4 µM
TGI [2]: 21.1 µM
TGI [3]: 4 µM
TGI [4]: 3.12 µM
TGI [5]: 2.82 µM
TGI [6]: > 100 µM

O=c1c2ccccc2c(=O)n2n1-c1cccc(c1)CSSCc1cccc-2c1
GI50 [7]: > 100 µM
TGI [7]: > 100 µM
GI50 [2]: > 100 µM
TGI [2]: > 100 µM
GI50 [4]: > 100 µM
TGI [4]: > 100 µM
TGI [5]: > 100 µM
GI50 [6]: > 100 µM
TGI [6]: > 100 µM

CC1COS(=O)N1c1ccccc1 (stereo unspecified)
TGI [1]: > 100 µM
TGI [2]: > 100 µM
TGI [3]: > 100 µM
TGI [4]: > 100 µM
TGI [5]: > 100 µM
TGI [6]: > 100 µM

CCOc1ccc2c(c1)[n+]([O-])c(C(N)=O)c(N)[n+]2[O-]
TGI [7]: > 100 µM
TGI [1]: > 100 µM
TGI [2]: > 100 µM
TGI [3]: > 100 µM
TGI [4]: > 100 µM
TGI [5]: > 100 µM

O=C1C2C3SC(c4cc5ccccc5cc43)C2C(=O)N1c1ccccc1 (stereo unspecified)
TGI [7]: > 100 µM
TGI [1]: > 100 µM
TGI [2]: > 100 µM
TGI [4]: > 100 µM
TGI [5]: > 100 µM
TGI [6]: > 100 µM

O=C1CN=C(c2ccccc2)c2ccncc2N1
TGI [7]: > 100 µM
TGI [1]: > 100 µM
TGI [2]: 37 µM
TGI [4]: > 100 µM
TGI [5]: > 100 µM
TGI [6]: > 100 µM

CSC(=Nc1ccc([N+](=O)[O-])cc1C#N)NC(=O)c1ccccc1
TGI [7]: > 100 µM
TGI [1]: > 100 µM
TGI [2]: > 100 µM
TGI [3]: > 100 µM
TGI [5]: > 100 µM
TGI [6]: > 100 µM

O=C(O)c1ccccc1NS(=O)(=O)c1ccc(Cl)cc1
TGI [7]: > 100 µM
TGI [1]: 81.5 µM
TGI [3]: > 100 µM
TGI [4]: > 100 µM
TGI [6]: > 100 µM

CN(N=O)C(=O)NC(CCCCNC(=O)OCc1ccccc1)C(=O)OCc1ccccc1 (stereo unspecified)
TGI [7]: 52.8 µM
TGI [1]: 54.2 µM
TGI [2]: > 100 µM
TGI [3]: > 100 µM
TGI [4]: 29.1 µM
TGI [5]: > 100 µM
TGI [6]: 33.1 µM

CC(C)N1CCOC(c2ccc(O)c(O)c2)C1 (stereo unspecified)
TGI [7]: > 100 µM
TGI [1]: > 100 µM
TGI [2]: > 100 µM
TGI [3]: > 100 µM
TGI [4]: > 100 µM
TGI [5]: > 100 µM
TGI [6]: > 100 µM

CCN(CC)CC(C(=O)Nc1c(C)cccc1C)/C(C)=N\NC(=S)NN (stereo unspecified)
TGI [1]: > 100 µM
TGI [2]: > 100 µM
TGI [3]: > 100 µM
TGI [4]: > 100 µM
TGI [5]: > 100 µM
TGI [6]: > 100 µM

Cc1cccc(-c2nc(=S)[nH][nH]2)c1
TGI [7]: > 100 µM
TGI [1]: > 100 µM
TGI [2]: > 100 µM
TGI [3]: > 100 µM
TGI [4]: > 100 µM
TGI [5]: > 100 µM
TGI [6]: > 100 µM

O=C1c2ccccc2C(=O)N1C/C=N/NS(=O)(=O)c1cccc([N+](=O)[O-])c1
TGI [7]: > 100 µM
TGI [2]: > 100 µM
TGI [3]: > 100 µM
TGI [4]: > 100 µM
TGI [5]: > 100 µM
TGI [6]: > 100 µM

NCCNCCNCc1c2ccccc2c(CNCCNCCN)c2ccccc12
TGI [7]: > 100 µM
TGI [1]: 84.1 µM
TGI [2]: > 100 µM
TGI [3]: > 100 µM
TGI [5]: > 100 µM
TGI [6]: > 100 µM

CC[O-].CC[O-].[O-]c1ccccc1C=NC12CC3CC(CC(C3)C1)C2.[O-]c1ccccc1C=NC12CC3CC(CC(C3)C1)C2.[Ti+4]
GI50 [7]: > 100 µM
TGI [7]: > 100 µM
GI50 [1]: 34.4 µM
TGI [1]: > 100 µM
GI50 [2]: > 100 µM
TGI [2]: > 100 µM
GI50 [3]: > 100 µM
TGI [3]: > 100 µM
GI50 [5]: > 100 µM
TGI [5]: > 100 µM
GI50 [6]: 19.6 µM
TGI [6]: > 100 µM

CS(=O)(=O)N(CCC#N)c1ccc(/C=C2\N=C(c3ccccc3Cl)OC2=O)cc1
TGI [7]: > 100 µM
TGI [2]: > 100 µM
TGI [3]: > 100 µM
TGI [4]: > 100 µM
TGI [5]: > 100 µM
TGI [6]: > 100 µM

O=S1(=O)[C@H](c2ccccc2)c2c(-c3ccccc3)sc(-c3ccccc3)c2[C@@H]1c1ccccc1
TGI [7]: > 100 µM
TGI [1]: > 100 µM
TGI [2]: > 100 µM
TGI [3]: > 100 µM
TGI [4]: > 100 µM
TGI [5]: > 100 µM
TGI [6]: > 100 µM

CCN(CC)C(=O)c1cccc2c(OC)ccc(OC)c12
TGI [7]: > 100 µM
TGI [2]: > 100 µM
TGI [3]: > 100 µM
TGI [4]: > 100 µM
TGI [5]: > 100 µM
TGI [6]: > 100 µM
